The source of these data is PubChem BioAssay AID1259407 (Chemical Carcinogenesis Research Information System (CCRIS), 2018).

Each structure is given as a SMILES string. The source made the active and inactive calls. How the calls were made is not given here.

This data set relates to CCRIS mutagenicity, Ames/micronucleus/aberration tests. Nature of the data set: CCRIS mutagenicity studies.
[1] abbreviates: Test System: AMES SALMONELLA TYPHIMURIUM, Strain/Indicator: TA98, Metabolic Activation: NONE, Method: STANDARD PLATE.
Where [2] appears, read: Test System: AMES SALMONELLA TYPHIMURIUM, Strain/Indicator: TA100, Metabolic Activation: NONE, Method: STANDARD PLATE.
Where [3] appears, read: Test System: AMES SALMONELLA TYPHIMURIUM, Strain/Indicator: TA98, Metabolic Activation: RAT, LIVER, S-9, AROCLOR 1254, Method: STANDARD PLATE.

As for `CCN(CC)c1ccc2c(-c3ccc(S(=O)(=O)O)cc3S(=O)(=O)[O-])c3ccc(=[N+](CC)CC)cc-3oc2c1`, the mutagenic call was “inactive; negative” (End Point: IN VIVO MICRONUCLEUS, Test System: BONE MARROW POLYCHROMATIC ERYTHROCYTES, Species: MOUSE, Strain/Sex: DDY/MALE, Route: IP); “active; positive” (Test System: AMES SALMONELLA TYPHIMURIUM, Strain/Indicator: TA98, Metabolic Activation: HAMSTER, LIVER, S-9, AROCLOR 1254 (10%), Method: STANDARD PLATE); “inactive; negative” under setting [1]; “active; positive” (Test System: AMES SALMONELLA TYPHIMURIUM, Strain/Indicator: TA98, Metabolic Activation: RAT, LIVER, S-9, AROCLOR 1254 (10%), Method: STANDARD PLATE); “inactive; negative” (Test System: AMES SALMONELLA TYPHIMURIUM, Strain/Indicator: TA100, Metabolic Activation: HAMSTER, LIVER, S-9, AROCLOR 1254 (10%), Method: STANDARD PLATE); “inactive; negative” under setting [2]. Further, the mutagenic call is “inactive; negative” (Test System: AMES SALMONELLA TYPHIMURIUM, Strain/Indicator: TA100, Metabolic Activation: RAT, LIVER, S-9, AROCLOR 1254 (10%), Method: STANDARD PLATE); “inactive; negative” (Test System: AMES SALMONELLA TYPHIMURIUM, Strain/Indicator: TA1538, Metabolic Activation: NONE, Method: STANDARD PLATE); “inactive; negative” (Test System: AMES SALMONELLA TYPHIMURIUM, Strain/Indicator: TA1538, Metabolic Activation: RAT, LIVER, S-9, AROCLOR 1254, Method: STANDARD PLATE); “inactive; negative” (Test System: MOUSE LYMPHOMA, Strain/Indicator: L5178Y (TK+/TK-), Metabolic Activation: NONE, Method: SUSPENSION/PLATE); “active; positive” (Test System: MOUSE LYMPHOMA, Strain/Indicator: L5178Y (TK+/TK-), Metabolic Activation: RAT, LIVER, S-9, AROCLOR 1254, Method: SUSPENSION/PLATE).
For `Nc1cc(Cl)ccc1Cl`, the mutagenic call by setting is: (Test System: AMES SALMONELLA TYPHIMURIUM, Strain/Indicator: TA97, Metabolic Activation: HAMSTER, LIVER, S-9, AROCLOR 1254 (10%), Method: PREINCUBATION) “inactive; negative”; (Test System: AMES SALMONELLA TYPHIMURIUM, Strain/Indicator: TA97, Metabolic Activation: HAMSTER, LIVER, S-9, AROCLOR 1254 (30%), Method: PREINCUBATION) “inactive; negative”; (Test System: AMES SALMONELLA TYPHIMURIUM, Strain/Indicator: TA97, Metabolic Activation: NONE, Method: PREINCUBATION) “inactive; negative”; (Test System: AMES SALMONELLA TYPHIMURIUM, Strain/Indicator: TA97, Metabolic Activation: RAT, LIVER, S-9, AROCLOR 1254 (10%), Method: PREINCUBATION) “inactive; negative”; (Test System: AMES SALMONELLA TYPHIMURIUM, Strain/Indicator: TA97, Metabolic Activation: RAT, LIVER, S-9, AROCLOR 1254 (30%), Method: PREINCUBATION) “inactive; negative”; (Test System: AMES SALMONELLA TYPHIMURIUM, Strain/Indicator: TA98, Metabolic Activation: HAMSTER, LIVER, S-9, AROCLOR 1254 (10%), Method: PREINCUBATION) “inactive; negative”. Also, the mutagenic call (Test System: AMES SALMONELLA TYPHIMURIUM, Strain/Indicator: TA98, Metabolic Activation: HAMSTER, LIVER, S-9, AROCLOR 1254 (30%), Method: PREINCUBATION) was “inactive; negative”; the mutagenic call (Test System: AMES SALMONELLA TYPHIMURIUM, Strain/Indicator: TA98, Metabolic Activation: NONE, Method: PREINCUBATION) was “inactive; negative”; the mutagenic call (Test System: AMES SALMONELLA TYPHIMURIUM, Strain/Indicator: TA98, Metabolic Activation: RAT, LIVER, S-9, AROCLOR 1254 (10%), Method: PREINCUBATION) is “inactive; negative”; the mutagenic call (Test System: AMES SALMONELLA TYPHIMURIUM, Strain/Indicator: TA98, Metabolic Activation: RAT, LIVER, S-9, AROCLOR 1254 (30%), Method: PREINCUBATION) is “inactive; negative”; the mutagenic call (Test System: AMES SALMONELLA TYPHIMURIUM, Strain/Indicator: TA100, Metabolic Activation: HAMSTER, LIVER, S-9, AROCLOR 1254 (10%), Method: PREINCUBATION) is “inactive; negative”; the mutagenic call (Test System: AMES SALMONELLA TYPHIMURIUM, Strain/Indicator: TA100, Metabolic Activation: HAMSTER, LIVER, S-9, AROCLOR 1254 (30%), Method: PREINCUBATION) is “inactive; negative”. Besides, the mutagenic call is “inactive; negative” (Test System: AMES SALMONELLA TYPHIMURIUM, Strain/Indicator: TA100, Metabolic Activation: NONE, Method: PREINCUBATION); “inactive; negative” (Test System: AMES SALMONELLA TYPHIMURIUM, Strain/Indicator: TA100, Metabolic Activation: RAT, LIVER, S-9, AROCLOR 1254 (10%), Method: PREINCUBATION); “inactive; negative” (Test System: AMES SALMONELLA TYPHIMURIUM, Strain/Indicator: TA100, Metabolic Activation: RAT, LIVER, S-9, AROCLOR 1254 (30%), Method: PREINCUBATION); “inactive; negative” (Test System: AMES SALMONELLA TYPHIMURIUM, Strain/Indicator: TA1535, Metabolic Activation: HAMSTER, LIVER, S-9, AROCLOR 1254 (10%), Method: PREINCUBATION); “inactive; negative” (Test System: AMES SALMONELLA TYPHIMURIUM, Strain/Indicator: TA1535, Metabolic Activation: HAMSTER, LIVER, S-9, AROCLOR 1254 (30%), Method: PREINCUBATION); “inactive; negative” (Test System: AMES SALMONELLA TYPHIMURIUM, Strain/Indicator: TA1535, Metabolic Activation: NONE, Method: PREINCUBATION). Further, the mutagenic call by setting is: (Test System: AMES SALMONELLA TYPHIMURIUM, Strain/Indicator: TA1535, Metabolic Activation: RAT, LIVER, S-9, AROCLOR 1254 (10%), Method: PREINCUBATION) “inactive; negative”; (Test System: AMES SALMONELLA TYPHIMURIUM, Strain/Indicator: TA1535, Metabolic Activation: RAT, LIVER, S-9, AROCLOR 1254 (30%), Method: PREINCUBATION) “inactive; negative”; (Test System: UDS RODENT HEPATOCYTES, Strain/Indicator: THY INCORP (NON-S-PHASE), Metabolic Activation: NONE, Method: AUTORADIOGRAPHY) “inactive; negative”.
On to `Oc1cccc2c1ccc1c3ccccc3ccc21`, for which the mutagenic call runs as follows: under setting [3], “inactive; negative”; under setting [2], “inactive; negative”.
In the case of `CCOC(=O)c1[nH]c2ccccc2c1N=Cc1ccc([N+](=O)[O-])cc1`, the mutagenic call was “inactive; negative” (Test System: AMES SALMONELLA TYPHIMURIUM, Strain/Indicator: TA97, Metabolic Activation: NONE, Method: STANDARD PLATE); “inactive; negative” (Test System: AMES SALMONELLA TYPHIMURIUM, Strain/Indicator: TA97, Metabolic Activation: RAT, LIVER, S-9, AROCLOR 1254, Method: STANDARD PLATE); “inactive; negative” under setting [1]; “active; positive” under setting [3]; “inactive; negative” under setting [2]; “inactive; negative” (Test System: AMES SALMONELLA TYPHIMURIUM, Strain/Indicator: TA100, Metabolic Activation: RAT, LIVER, S-9, AROCLOR 1254, Method: STANDARD PLATE). Besides, the mutagenic call was “inactive; negative” (Test System: AMES SALMONELLA TYPHIMURIUM, Strain/Indicator: TA102, Metabolic Activation: NONE, Method: STANDARD PLATE) and “inactive; negative” (Test System: AMES SALMONELLA TYPHIMURIUM, Strain/Indicator: TA102, Metabolic Activation: RAT, LIVER, S-9, AROCLOR 1254, Method: STANDARD PLATE).
